Laboratory results as given in US8338587B2, “Compounds” (AstraZeneca AB, priority 2009, dated 2012).

Each molecule was assayed against T1, recombinant human GR (Homo sapiens, UniProt P04150) (assay: Human Glucocorticoid Receptor (GR) Assay (fluorescence polarization competition, Panvera/Invitrogen kit)). Settings: GS Red Fluoromone tracer, 2 hours at room temperature, 100% control 10 μM Dexamethasone, read-out: Inhibition of GR binding, IC50.
T1 construct: purchased Panvera/Invitrogen P2812 (kit P2893)
T1 sequence (P04150 1-777): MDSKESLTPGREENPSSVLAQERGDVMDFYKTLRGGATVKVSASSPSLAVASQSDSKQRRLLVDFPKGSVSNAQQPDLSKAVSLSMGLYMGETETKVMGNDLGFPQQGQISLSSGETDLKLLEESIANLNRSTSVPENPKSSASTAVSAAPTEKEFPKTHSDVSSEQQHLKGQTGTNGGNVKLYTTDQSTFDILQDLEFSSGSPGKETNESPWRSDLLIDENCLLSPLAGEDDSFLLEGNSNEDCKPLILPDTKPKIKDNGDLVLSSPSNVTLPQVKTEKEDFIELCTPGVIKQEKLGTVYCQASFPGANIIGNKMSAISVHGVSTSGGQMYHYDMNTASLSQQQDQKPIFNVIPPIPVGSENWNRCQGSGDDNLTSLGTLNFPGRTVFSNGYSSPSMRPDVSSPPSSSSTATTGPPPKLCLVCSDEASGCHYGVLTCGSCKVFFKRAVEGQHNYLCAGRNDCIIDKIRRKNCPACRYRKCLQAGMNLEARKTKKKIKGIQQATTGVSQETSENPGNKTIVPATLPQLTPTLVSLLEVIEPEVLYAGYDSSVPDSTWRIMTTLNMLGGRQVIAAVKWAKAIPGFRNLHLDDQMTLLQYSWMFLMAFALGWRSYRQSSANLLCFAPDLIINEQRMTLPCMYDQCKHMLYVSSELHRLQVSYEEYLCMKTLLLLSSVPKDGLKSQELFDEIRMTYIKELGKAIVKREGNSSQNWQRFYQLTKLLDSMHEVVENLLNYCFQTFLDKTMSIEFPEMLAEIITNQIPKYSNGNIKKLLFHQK
Procedure: Human Glucocorticoid Receptor (GR) Assay The assay is based on a commercial kit from Panvera/Invitrogen (Part number P2893). The assay technology is fluorescence polarization. The kit utilises recombinant human GR (Panvera, Part number P2812), a Fluoromone™ labelled tracer (GS Red, Panvera, Part number P2894) and a Stabilizing Peptide 10× (Panvera, Part number P2815). The GR and Stabilizing Peptide reagents are stored at −70° C. while the GS Red is stored at −20° C. Also included in the kit are 1M DTT (Panvera, Part number P2325, stored at −20° C.) and GR Screening buffer 10× (Panvera, Part number P2814, stored at −70° C. initially but once thawed stored at room temperature). Avoid repeated freeze/thaws for all reagents. The GR Screening buffer 10× comprises 100 mM potassium phosphate, 200 mM sodium molybdate, 1 mM EDTA and 20% DMSO. Test compounds (1 μL) and controls (1 μL) in 100% DMSO were added to black is polystyrene 384-well plates (Greiner low volume black flat-bottom, part number 784076). 0% control was 100% DMSO and 100% control was 10 μM Dexamethasone. Background solution (8 μL; assay buffer 10×, Stabilizing Peptide, DTT and ice cold MQ water) was added to the background wells. GS Red solution (7 μL; assay buffer 10×, Stabilizing Peptide, DTT, GS Red and ice cold water) was added to all wells except background wells. GR solution (7 μL; assay buffer 10×, Stabilizing Peptide, DTT, GR and ice cold water) was added to all wells. The plate was sealed and incubated in a dark at room temperature for 2 hours. The plate was read in an Analyst plate reader (LJL Biosystems/Molecular Devices Corporation) or other similar plate reader capable of recording fluorescence polarization (excitation wavelength 530 nm, emission wavelength 590 nm and a dichroic mirror at 561 nm).

SMILES	IC50 [nM]
C[C@]12Cc3cnn(-c4ccc(F)nc4)c3C=C1CC[C@H]1[C@@H]3CC[C@](OC(=O)C4CCOC4)(C(=O)SCC#N)[C@@]3(C)C[C@H](O)[C@@]12F (mixture of isomers) [Example 15 (racemate), (1R,3aS,3bS,10aS,10bR,11S,12aS)-1-{[(Cyanomethyl)sulfanyl]carbonyl}-10b-fluoro-7-(6-fluoropyridin-3-yl)-11-hydroxy-10a,12a-dimethyl-1,2,3,3a,3b,4,5,7,10,10a,10b,11,12,12a-tetradecahydrocyclopenta[5,6]naphtho[1,2-f]indazol-1-yl tetrahydrofuran-3-carboxylate]	0.55
C[C@]12Cc3cnn(-c4ccc(F)nc4)c3C=C1CC[C@H]1[C@@H]3CC[C@](OC(=O)C4CCOC4)(C(=O)SCF)[C@@]3(C)C[C@H](O)[C@@]12F (mixture of isomers) [Example 16 (racemate), (1R,3aS,3bS,10aS,10bR,11S,12aS)-10b-Fluoro-1-{[(fluoromethyl)sulfanyl]carbonyl}-7-(6-fluoropyridin-3-yl)-11-hydroxy-10a,12a-dimethyl-1,2,3,3a,3b, 4,5,7,10,10a,10b,11,12,12a-tetradecahydrocyclopenta[5,6]naphtho[1,2-f]indazol-1-yl tetrahydrofuran-3-carboxylate]	0.53
C[C@]12Cc3cnn(-c4ccc(F)nc4)c3C=C1CC[C@H]1[C@@H]3CC[C@](OC(=O)C4CCOC4)(C(=O)SCC#N)[C@@]3(C)C[C@H](O)[C@@]12F (single isomer, unassigned) [15 (R)/(S) isomer]	0.57
C[C@]12Cc3cnn(-c4ccc(F)nc4)c3C=C1CC[C@H]1[C@@H]3CC[C@](OC(=O)C4CCOC4)(C(=O)SCC#N)[C@@]3(C)C[C@H](O)[C@@]12F (single isomer, unassigned) [15 (S)/(R) isomer]	0.58
C[C@]12Cc3cnn(-c4ccc(F)nc4)c3C=C1CC[C@H]1[C@@H]3CC[C@](OC(=O)C4CCOC4)(C(=O)SCF)[C@@]3(C)C[C@H](O)[C@@]12F (single isomer, unassigned) [16 (R)/(S) isomer]	0.44
C[C@]12Cc3cnn(-c4ccc(F)nc4)c3C=C1CC[C@H]1[C@@H]3CC[C@](OC(=O)C4CCOC4)(C(=O)SCF)[C@@]3(C)C[C@H](O)[C@@]12F (single isomer, unassigned) [16 (S)/(R) isomer]	1.3
C[C@]12Cc3cnn(-c4ccc(F)cc4)c3C=C1CC[C@@H]1[C@@H]2[C@@H](O)C[C@@]2(C)[C@H]1CC[C@]2(OC(=O)C1CCCO1)C(=O)SCCO (single isomer, unassigned) [Example 18]	3.1
CC12Cc3cnn(-c4ccc(F)nc4)c3C=C1CC[C@@H]1C2[C@@H](O)C[C@@]2(C)[C@H]1CC[C@]2(OC(=O)C1CC1)C(=O)OCC#N (stereo in doubt) [Example 20, (1R,3aS,3bS,10aS,10bR,11S,12aS)-1-{[Cyanomethyloxy]carbonyl}-7-(6-fluoropyridin-3-yl)-11-hydroxy-10a,12a-dimethyl-1,2,3,3a,3b,4,5,7,10,10a,10b,11,12,12a-tetradecahydrocyclopenta[5,6]naphtho[1,2-f]indazol-1-yl cyclopropanecarboxylate]	2.3
COCC(=O)O[C@]1(C(=O)SCF)[C@H](C)C[C@H]2[C@@H]3CCC4=Cc5c(cnn5-c5ccc(F)nc5)C[C@]4(C)[C@@]3(F)[C@@H](O)C[C@@]21C [Example 1, (1R,2R,3aS,3bS,10aS,10bR,11S,12aS)-10b-Fluoro-1-{[(fluoromethyl)sulfanyl]carbonyl}-7-(6-fluoropyridin-3-yl)-11-hydroxy-2,10a,12a-trimethyl-1,2,3,3a,3b,4,5,7,10,10a,10b,11,12,12a-tetradecahydrocyclopenta[5,6]naphtho[1,2-f]indazol-1-yl methoxyacetate]	3.5
